From patent EP4741392A1, “1H-PYRAZOLO[4,3-C]PYRIDINE COMPOUND, AND COMPOSITION THEREOF AND USE THEREOF” (Shenzhen TargetRx Co., Ltd., priority 2023, dated 2025)

What was measured:
Assay type in all cases: biochemical
BTK T474I = target: T1, BTK T474I (Homo sapiens, UniProt Q06187, T474I); assay: Kinase activity inhibition assay (HTRF TK Kit)
T1 construct: purchased SignalChem B10-12HH
Excerpt: (§1) In this assay, the HTRF TK Kit (Catalog No. 62TK0PEC) provided by Cisbio was used to detect the inhibitory activity of compounds on BTK kinase, BTK T474I kinase and BTK C481 S kinase and the selectivity of compounds relative to EGFR, ITK and TEC kinases.
(§2) Reagents and consumables: BTK kinase (Invitrogen, Catalog No. PV3587), BTK C481S (Carna, Product No. 08-547), BTK T474I(SignalChem Product No. B10-12HH), ITK (Cama, Product No. 08-181), EGFR (Cama, Product No. 08-115), TEC (Carna, Product No. 08-182), HTRF-TK kit (Cisbio, Product No. 62TK0PEC), MgCl2 (Sigma, Product No. M1028), MnCl2 (Sigma, Product No. M1787), DTT (Sigma, Product No. D0632), ATP (Sigma, Product No. A7699-1g), DMSO (Sigma, Product No. D2650), 384-well plate (PE, Product No. 6008280).
(§3) The entire operation steps were carried out on ice, and the total reaction volume was 10µL. A compound (4µL), substrate and ATP (4µL), and kinase (2µL) were added in sequence to a 384-well plate, and the plate was shaken for 30 seconds. The mixture was reacted at room temperature for an appropriate time, and then the detection reagent was added. The resulting mixture was reacted at room temperature for 1 hour, and then the plate was assayed with a microplate reader. The specific steps were as follows: • a) a 1 × kinase buffer solution required for the kinase assay was calculated according to the amount of the test compound, and prepared as needed; • b) 2.5 × working concentration of a compound was prepared, 100-fold gradient concentration solutions of a compound were diluted by 40 × to the desired concentration, respectively, mixed well, and added to each well at 4 µL per well; • c) 5 × working concentration of the substrate and ATP were prepared, mixed in a ratio of 1:1 before being added to the 384-well plate, and added to each well at 4 µL per well; • d) 5 × working concentration of a kinase was prepared, 2 µL of which was added to each well; • e) the plate was shaken on a microplate shaker for 30 seconds, sealed with a sealing membrane, and the mixture was reacted at room temperature for an appropriate time; • f) 4 × working concentration of streptavidin XL-665 and TK antibody-cryptate compound were prepared, mixed in a ratio of 1:1 before being added to the 384-well plate, and added to each well at 10 µL per well; • g) the mixture was reacted at room temperature for 1 hour, and then the plate was read; • h) the wells with only substrate, ATP and 1% DMSO added but no kinase were blank control wells, and the wells with only substrate, ATP, 1% DMSO and kinase were positive control wells.
(§4) Readings: The values of 620 nm (cryptate) and 665 nm (XL665) were read with a BioTek Synerg Neo2 microplate reader, the ratio of 665/620 for each well was calculated, and the data were exported.
(§5) Data analysis: IC50 was calculated using GraphPad Prism 7.0 software.
(§6) The IC50 (half-maximal inhibitory concentration) of the compound was obtained using the following nonlinear fitting formula: Y = Bottom + (Top−Bottom)/(1+10^(∧)((LogIC50−X)*HillSlope)) [formula] • X: Log value of the compound concentration • Y: Inhibition rate (% inhibition) • Top: Maximum response • Bottom: Baseline response • HillSlope: Slope of the curve
(§7) The formula for calculating kinase inhibition rate (inhibition rate %) was: [formula]

BTK C481S = target: T2, BTK C481S (Homo sapiens, UniProt Q06187, C481S); assay: Kinase activity inhibition assay (HTRF TK Kit)
T2 construct: purchased Carna 08-547
Excerpt: as §1, §2, §3, §4, §5, §6, §7

BTK kinase = target: T3, BTK kinase (Homo sapiens, UniProt Q06187); assay: Kinase activity inhibition assay (HTRF TK Kit)
T3 construct: purchased Invitrogen PV3587
Excerpt: as §1, §2, §3, §4, §5, §6, §7

EGFR = target: T4, EGFR (Homo sapiens, UniProt P00533); assay: Kinase activity inhibition assay (HTRF TK Kit), selectivity
T4 construct: purchased Carna 08-115
Excerpt: as §1, §2, §3, §4, §5, §6, §7

TEC = target: T5, TEC (Homo sapiens, UniProt P42680); assay: as above
T5 construct: purchased Carna 08-182
T5 sequence (P42680 1-631): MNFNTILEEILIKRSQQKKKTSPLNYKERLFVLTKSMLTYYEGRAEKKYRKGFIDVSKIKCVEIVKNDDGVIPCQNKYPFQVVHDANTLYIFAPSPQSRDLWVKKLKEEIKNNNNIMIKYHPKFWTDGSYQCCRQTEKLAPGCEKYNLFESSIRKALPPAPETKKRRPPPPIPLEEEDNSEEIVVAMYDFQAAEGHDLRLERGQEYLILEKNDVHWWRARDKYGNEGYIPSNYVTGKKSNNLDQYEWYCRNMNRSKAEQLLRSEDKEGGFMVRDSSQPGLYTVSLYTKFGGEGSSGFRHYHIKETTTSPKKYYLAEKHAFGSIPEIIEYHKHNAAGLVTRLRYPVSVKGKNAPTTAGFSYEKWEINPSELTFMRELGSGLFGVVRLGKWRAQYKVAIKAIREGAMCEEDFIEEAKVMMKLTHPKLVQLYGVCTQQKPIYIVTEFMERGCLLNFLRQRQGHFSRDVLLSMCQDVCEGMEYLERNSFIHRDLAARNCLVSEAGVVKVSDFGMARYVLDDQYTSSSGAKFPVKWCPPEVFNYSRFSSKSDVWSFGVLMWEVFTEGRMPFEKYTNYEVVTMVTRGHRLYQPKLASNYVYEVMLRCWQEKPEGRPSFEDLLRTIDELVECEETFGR
Excerpt: as §1, §2, §3, §4, §5, §6, §7

ITK = target: T6, ITK (Homo sapiens, UniProt Q08881); assay: as above
T6 construct: purchased Carna 08-181
T6 sequence (Q08881 1-620): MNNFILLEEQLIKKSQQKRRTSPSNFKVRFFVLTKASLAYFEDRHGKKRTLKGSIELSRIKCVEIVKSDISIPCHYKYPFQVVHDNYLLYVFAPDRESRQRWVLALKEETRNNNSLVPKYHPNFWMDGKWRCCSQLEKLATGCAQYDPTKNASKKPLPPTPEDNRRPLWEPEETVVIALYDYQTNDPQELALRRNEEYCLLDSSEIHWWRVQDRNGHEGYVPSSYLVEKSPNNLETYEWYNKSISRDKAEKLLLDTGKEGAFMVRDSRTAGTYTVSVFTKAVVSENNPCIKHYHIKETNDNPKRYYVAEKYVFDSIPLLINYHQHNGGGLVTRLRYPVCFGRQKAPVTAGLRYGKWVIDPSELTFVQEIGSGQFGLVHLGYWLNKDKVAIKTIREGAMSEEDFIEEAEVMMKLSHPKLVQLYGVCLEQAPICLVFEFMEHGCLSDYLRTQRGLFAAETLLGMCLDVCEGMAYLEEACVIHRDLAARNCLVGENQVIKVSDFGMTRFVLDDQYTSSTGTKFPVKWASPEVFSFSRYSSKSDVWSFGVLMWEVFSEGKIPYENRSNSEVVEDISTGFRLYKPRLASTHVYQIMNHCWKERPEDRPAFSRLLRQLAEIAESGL
Excerpt: as §1, §2, §3, §4, §5, §6, §7

T1 sequence (Q06187 whole entry T474I): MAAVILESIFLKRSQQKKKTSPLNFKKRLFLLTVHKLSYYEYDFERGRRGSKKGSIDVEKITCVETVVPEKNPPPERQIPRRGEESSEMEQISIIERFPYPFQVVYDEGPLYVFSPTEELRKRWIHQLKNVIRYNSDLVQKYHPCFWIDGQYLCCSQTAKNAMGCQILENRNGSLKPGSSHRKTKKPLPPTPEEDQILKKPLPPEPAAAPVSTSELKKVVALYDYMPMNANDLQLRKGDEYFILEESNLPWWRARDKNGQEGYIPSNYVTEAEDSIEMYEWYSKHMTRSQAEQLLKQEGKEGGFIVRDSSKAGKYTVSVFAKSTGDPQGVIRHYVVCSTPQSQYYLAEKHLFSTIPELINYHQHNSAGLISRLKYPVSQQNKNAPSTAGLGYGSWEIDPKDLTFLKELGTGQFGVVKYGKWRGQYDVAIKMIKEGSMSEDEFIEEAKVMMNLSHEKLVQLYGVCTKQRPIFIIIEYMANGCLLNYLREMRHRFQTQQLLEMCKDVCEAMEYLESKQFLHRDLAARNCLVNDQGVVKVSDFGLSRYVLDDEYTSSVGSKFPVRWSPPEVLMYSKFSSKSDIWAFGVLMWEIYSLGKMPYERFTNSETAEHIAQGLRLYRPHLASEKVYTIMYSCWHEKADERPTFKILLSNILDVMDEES
T2 sequence (Q06187 whole entry C481S): as the sequence (Q06187 whole entry T474I) above, with I474T, C481S counted along it
T4 sequence (P00533 669-1210 limits assumed): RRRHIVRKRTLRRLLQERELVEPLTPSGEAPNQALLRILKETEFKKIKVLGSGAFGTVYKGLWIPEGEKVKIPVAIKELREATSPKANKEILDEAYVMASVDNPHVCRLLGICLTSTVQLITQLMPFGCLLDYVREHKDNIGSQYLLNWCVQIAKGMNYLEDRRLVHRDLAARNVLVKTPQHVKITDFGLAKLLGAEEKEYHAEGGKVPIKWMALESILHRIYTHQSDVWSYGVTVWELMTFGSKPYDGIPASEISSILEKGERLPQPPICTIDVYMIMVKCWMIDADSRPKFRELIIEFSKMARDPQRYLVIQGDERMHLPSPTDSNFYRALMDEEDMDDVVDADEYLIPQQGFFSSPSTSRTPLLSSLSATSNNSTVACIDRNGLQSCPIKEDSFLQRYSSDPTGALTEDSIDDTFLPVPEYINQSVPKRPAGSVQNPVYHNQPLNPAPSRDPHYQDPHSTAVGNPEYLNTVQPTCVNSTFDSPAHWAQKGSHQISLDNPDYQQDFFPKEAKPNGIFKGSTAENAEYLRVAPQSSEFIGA
T3 sequence (Q06187 whole entry): as the sequence (Q06187 whole entry T474I) above, with I474T counted along it

Structure (SMILES)	IC50 (BTK T474I)	IC50 (BTK C481S)	IC50 (BTK kinase)	IC50 (EGFR)	IC50 (TEC)	IC50 (ITK)
COc1ccc(F)cc1C(=O)NCc1ccc(-c2ncc(-c3ncccn3)c3[nH]nc(N)c23)cc1 [Example 17, N-(4-(3-amino-7-(pyrimidin-2-yl)-1H-pyrazolo[4,3-c]pyridin-4-yl)benzyl)-5-fluoro-2-methoxybenzamide]	0.05 to 0.5 µM	0.001 to 0.005 µM	0.001 to 0.005 µM	> 0.5 µM	0.005 to 0.05 µM	> 0.5 µM
COc1ccc(F)cc1C(=O)NCc1ccc(-c2ncc(-c3cnccn3)c3[nH]nc(N)c23)cc1 [Example 18, N-(4-(3-amino-7-(pyrazin-2-yl)-1H-pyrazolo[4,3-c]pyridin-4-yl)benzyl)-5-fluoro-2-methoxybenzamide]	0.05 to 0.5 µM	0.001 to 0.005 µM	0.005 to 0.05 µM	> 0.5 µM	0.05 to 0.5 µM	> 0.5 µM
COc1ccc(F)cc1C(=O)NCc1ccc(-c2ncc(-c3ccncn3)c3[nH]nc(N)c23)cc1 [Example 19]	0.05 to 0.5 µM	0.001 to 0.005 µM	0.001 to 0.005 µM	> 0.5 µM	0.05 to 0.5 µM	> 0.5 µM
COc1ccc(F)cc1C(=O)NCc1ccc(-c2ncc(-c3ccc(F)cn3)c3[nH]nc(N)c23)cc1 [Example 21, N-(4-(3-amino-7-(5-fluoropyridin-2-yl)-1H-pyrazolo[4,3-c]pyridin-4-yl)benzyl)-5-fluoro-2-methoxybenzamide]	0.05 to 0.5 µM	0.005 to 0.05 µM	0.001 to 0.005 µM	> 0.5 µM	0.05 to 0.5 µM	> 0.5 µM
COc1ccc(F)cc1C(=O)NCc1ccc(-c2ncc(-c3cnn(C)c3)c3[nH]nc(N)c23)cc1 [Example 22, N-(4-(3-amino-7-(1-methyl-1H-pyrazol-4-yl)-1H-pyrazolo[4,3-c]pyridin-4-yl)benzyl)-5-fluoro-2-oxybenzamide]	0.05 to 0.5 µM	0.005 to 0.05 µM	0.005 to 0.05 µM	> 0.5 µM	> 0.5 µM	> 0.5 µM
COc1ccc(F)cc1C(=O)NCc1ccc(-c2ncc(-c3ccn(C)n3)c3[nH]nc(N)c23)cc1 [Example 23, N-(4-(3-amino-7-(1-methyl-1H-pyrazol-3-yl)-1H-pyrazolo[4,3-c]pyridin-4-yl)benzyl)-5-fluoro-2-methoxybenzamide]	0.05 to 0.5 µM	≤ 0.001 µM	≤ 0.001 µM	0.05 to 0.5 µM	0.005 to 0.05 µM	> 0.5 µM
COc1ccc(F)cc1C(=O)NCc1ccc(-c2ncc(-c3ccc(C(F)(F)F)cn3)c3[nH]nc(N)c23)cc1 [Example 24, N-(4-(3-amino-7-(5-(trifluoromethyl)pyridin-2-yl)-1H-pyrazolo[4,3-c]pyridin-4-yl)benzyl)-5-fluoro-2-methoxybenzamide]	0.05 to 0.5 µM	0.005 to 0.05 µM	0.005 to 0.05 µM	> 0.5 µM	0.05 to 0.5 µM	> 0.5 µM

Further lines, results first:

IC50 (BTK T474I)	IC50 (BTK C481S)	IC50 (BTK kinase)	IC50 (EGFR)	IC50 (TEC)	IC50 (ITK)	Structure (SMILES)
0.05 to 0.5 µM	0.001 to 0.005 µM	0.001 to 0.005 µM	0.05 to 0.5 µM	0.05 to 0.5 µM	> 0.5 µM	COc1ccc(F)cc1C(=O)NCc1ccc(-c2ncc(-c3ccn(CC(=O)N(C)C)n3)c3[nH]nc(N)c23)cc1 [Example 25, N-(4-(3-amino-7-(1-(2-(dimethylamino)-2-oxoethyl)-1H-pyrazol-3-yl)-1H-pyrazolo[4,3-c]pyridin-4-yl)benzyl)-5-fluoro-2-methoxybenzamide]
0.05 to 0.5 µM	0.001 to 0.005 µM	0.001 to 0.005 µM	0.05 to 0.5 µM	0.05 to 0.5 µM	> 0.5 µM	CNC(=O)Cn1ccc(-c2cnc(-c3ccc(CNC(=O)c4cc(F)ccc4OC)cc3)c3c(N)n[nH]c23)n1 [Example 26, N-(4-(3-amino-7-(1-(2-(methylamino)-2-oxoethyl)-1H-pyrazol-3-yl)-1H-pyrazolo[4,3-c]pyridin-4-yl)benzyl)-5-fluoro-2-methoxybenzamide]
0.05 to 0.5 µM	0.001 to 0.005 µM	0.001 to 0.005 µM	0.005 to 0.05 µM	0.005 to 0.05 µM	0.05 to 0.5 µM	COc1ccc(F)cc1C(=O)NCc1ccc(-c2ncc(-c3ccn(CC(F)(F)F)n3)c3[nH]nc(N)c23)cc1 [Example 28, N-(4-(3-amino-7-(1-(2,2,2-trifluoroethyl)-1H-pyrazol-3-yl)-1H-pyrazolo[4,3-c]pyridin-4-yl)benzyl)-5-fluoro-2-methoxybenzamide]
0.05 to 0.5 µM	0.001 to 0.005 µM	0.001 to 0.005 µM	0.05 to 0.5 µM	0.05 to 0.5 µM	> 0.5 µM	COc1ccc(F)cc1C(=O)NCc1ccc(-c2ncc(-c3cn(C)cn3)c3[nH]nc(N)c23)cc1 [Example 30, N-(4-(3-amino-7-(1-methyl-1H-imidazol-4-yl)-1H-pyrazolo[4,3-c]pyridin-4-yl)benzyl)-5-fluoro-2-methoxybenzamide]
0.05 to 0.5 µM	0.001 to 0.005 µM	0.001 to 0.005 µM	0.05 to 0.5 µM	0.05 to 0.5 µM	> 0.5 µM	COc1ccc(F)cc1C(=O)NCc1ccc(-c2ncc(-c3cc[nH]n3)c3[nH]nc(N)c23)cc1 [Example 31, N-(4-(3-amino-7-(1H-pyrazol-3-yl)-1H-pyrazolo[4,3-c]pyridin-4-yl)benzyl)-5-fluoro-2-methoxybenzamide]
0.005 to 0.05 µM	≤ 0.001 µM	≤ 0.001 µM	0.05 to 0.5 µM	0.005 to 0.05 µM	0.05 to 0.5 µM	COc1ccc(F)cc1C(=O)NCc1ccc(-c2ncc(-c3ccc(S(C)(=O)=O)cn3)c3[nH]nc(N)c23)cc1 [Example 35, N-(4-(3-amino-7-(5-(methylsulfonyl)pyridin-2-yl)-1H-pyrazolo[4,3-c]pyridin-4-yl)benzyl)-5-fluoro-2-methoxybenzamide]
